# Results published in patent US8173710B2, “Bicyclic sphingosine 1-phosphate analogs” (University of Virginia Patent Foundation, priority 2006, dated 2012).
# Tests used:
# [1] = target: T1, S1P3 receptor (Homo sapiens, UniProt Q99500); test: GTPγS-35 binding assay (broken cell), S1P3; type: biochemical
# T1 construct: expressed in transfected cells; host or cells: HEK293T cells (crude microsomes)
# Method: (§1) This assay illustrates agonist activation of G protein coupled receptors (GPCRs) in isolation. The assay forces expression concomitantly of a recombinant GPCR (e.g., the S1P1-5 receptor) and each of the three subunits (typically, α-2, β-1, or γ-2) of a heterotrimeric G protein in a HEK293T cell by transfecting the cell with four plasmid DNAs encoding the respective proteins. About 60 hours after transfection the cells are harvested, opened, and the nucleus discarded. The crude microsome is prepared from the remainder. Agonist (e.g., S1P) stimulation of the receptor-G protein complex on the microsomes results in the exchange of GTP for GDP on the α-subunit in a dose-dependent manner. The GTP-bound a-subunit is detected using a GTP analog (GTPγS-35), which is a radionuclide (sulfur-35) labeled phosphothioate that is not hydrolyzed to GDP. The microsomes with the adherent G proteins are collected by filtration and the bound GTPγS-35 quantified in a liquid scintillation counter. The assay yields relative potency (EC50 values) and maximum effect (efficacy, Emaxa Antagonist activity is detected as rightward shifts in the agonist dose-response curve in the presence of a fixed amount of antagonist. If the antagonist behaves competitively, the affinity of the receptor/antagonist pair (K1) can be determined. […]
# [2] = target: T2, human S1P1 receptor (Homo sapiens, UniProt P21453); test: GTPγS-35 binding assay (broken cell), S1P1; type: biochemical; conditions: FIG. 7, compared with S1P
# T2 construct: expressed in transfected cells; host or cells: HEK293T cells (crude microsomes)
# Method: as §1
# [3] = Heart rate assay; type: in vivo; conditions: IV dosing, 3 mg/kg, 1 hour post dosing, vehicle 2% cyclodextrin, conscious mice, FIG. 11
# Method: Mice were dosed with compound VIII, FTY720 (intravenous, 3 mg/kg) or vehicle (2% hydroxypropyl beta-cyclodextrin) and heart rate measured at 1 hour post dosing. Heart rate was captured in unrestrained, conscious animals using the ECGenie™ system. The results are illustrated in FIG. 11.
# T1 sequence (Q99500 whole entry): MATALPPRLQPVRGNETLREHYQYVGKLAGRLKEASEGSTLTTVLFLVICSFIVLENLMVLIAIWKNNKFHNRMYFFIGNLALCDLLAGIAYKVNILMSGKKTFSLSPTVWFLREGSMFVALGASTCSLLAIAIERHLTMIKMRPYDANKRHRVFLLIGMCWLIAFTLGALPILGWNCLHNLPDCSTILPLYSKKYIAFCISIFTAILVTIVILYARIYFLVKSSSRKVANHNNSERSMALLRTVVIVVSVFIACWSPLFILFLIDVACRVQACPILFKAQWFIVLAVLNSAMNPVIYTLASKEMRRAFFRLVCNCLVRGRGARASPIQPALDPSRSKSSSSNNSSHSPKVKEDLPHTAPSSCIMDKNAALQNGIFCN
# T1 sequence (P04899 whole entry partner): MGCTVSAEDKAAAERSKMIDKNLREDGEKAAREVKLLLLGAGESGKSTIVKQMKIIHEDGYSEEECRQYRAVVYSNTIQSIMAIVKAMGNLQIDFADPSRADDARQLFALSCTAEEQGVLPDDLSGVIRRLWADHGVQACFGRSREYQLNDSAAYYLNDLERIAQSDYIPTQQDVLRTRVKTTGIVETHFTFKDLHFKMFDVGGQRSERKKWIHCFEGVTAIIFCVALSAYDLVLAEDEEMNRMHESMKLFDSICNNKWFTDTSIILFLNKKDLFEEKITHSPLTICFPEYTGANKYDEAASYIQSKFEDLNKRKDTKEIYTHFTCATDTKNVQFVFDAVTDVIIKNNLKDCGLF
# T1 sequence (P62873 whole entry partner): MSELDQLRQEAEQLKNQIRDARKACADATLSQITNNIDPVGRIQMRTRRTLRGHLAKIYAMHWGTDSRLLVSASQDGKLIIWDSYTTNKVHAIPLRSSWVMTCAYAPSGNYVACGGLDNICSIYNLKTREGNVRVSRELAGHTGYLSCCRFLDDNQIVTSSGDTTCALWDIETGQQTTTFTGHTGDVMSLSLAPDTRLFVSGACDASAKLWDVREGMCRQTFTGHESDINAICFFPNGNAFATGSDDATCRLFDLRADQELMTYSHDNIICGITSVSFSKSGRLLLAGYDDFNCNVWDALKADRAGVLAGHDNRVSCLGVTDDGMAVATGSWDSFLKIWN
# T1 sequence (P59768 2-68 partner limits assumed): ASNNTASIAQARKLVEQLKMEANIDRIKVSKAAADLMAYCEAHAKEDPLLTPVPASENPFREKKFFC
# T2 sequence (P21453 whole entry): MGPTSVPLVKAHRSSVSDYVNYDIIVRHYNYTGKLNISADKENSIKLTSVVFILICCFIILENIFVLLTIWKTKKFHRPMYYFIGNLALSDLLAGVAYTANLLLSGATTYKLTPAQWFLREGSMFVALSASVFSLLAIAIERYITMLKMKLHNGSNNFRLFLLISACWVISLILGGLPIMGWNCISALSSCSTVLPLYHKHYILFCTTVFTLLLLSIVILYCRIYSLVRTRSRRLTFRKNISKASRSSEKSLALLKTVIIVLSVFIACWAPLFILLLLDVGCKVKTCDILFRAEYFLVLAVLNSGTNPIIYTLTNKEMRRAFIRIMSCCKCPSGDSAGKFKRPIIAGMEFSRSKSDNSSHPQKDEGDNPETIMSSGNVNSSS
# T2 sequence (P04899 whole entry partner): as the sequence (P04899 whole entry partner) above
# T2 sequence (P62873 whole entry partner): as the sequence (P62873 whole entry partner) above
# T2 sequence (P59768 2-68 partner limits assumed): as the sequence (P59768 2-68 partner limits assumed) above
"agonist activity at the S1P3 receptor ([1]; FIG. 8, XXVI and XXVII tested as mixture of phosphorylated forms of compound VIII)",potency at S1P3 relative to S1P ([1]; compared with S1P),potency at S1P1 relative to S1P [2],Compound,effect on the heart rate of mice [3]
"low potency, partial agonists",less potent,more potent,"CCCCCCCCc1ccc2c(c1)CCC(C(N)(COP(=O)(O)O)COP(=O)(O)O)C2 (stereo not shown) [XXVII, Phosphoric acid mono-[2-amino-2-(6-octyl-1,2,3,4-tetrahydro-naphthalen-2-yl)-3-phosphonooxypropyl] ester]",
,,,"CCCCCCCCc1ccc2c(c1)CCC(C(N)(CO)CO)C2 (stereo not shown) [VIII, 2-Amino-2-(6-octyl-1,2,3,4-tetrahydro-naphthalen-2-yl)-propane-1,3-diol]",no effect
